# Values of other authors in patent US5565606A, “Synthesis of peptide aminoalkylamides and peptide hydrazides by the solid-phase method” (Hoechst Aktiengesellschaft, priority 1986, dated 1996).
# Where two headings read alike, the source gives them in different places.
# Legend:
# [1] = test system: amnesia induced by electric shock or scopolamine; details: s.c. administration, mice; from EP-A 179 332
# urge to groom and move = details: rats, from EP-A 179 332
# [2] = test system: choline content in the striatum; details: rats, s.c. administration of 10 μg; from EP-A 179 332
substance,measurement,setting,value
Met(O)-Glu-His-Phe-D-Lys-Phe-NH-(CH2)8 -NH2,"minimum effective dose, weakening of amnesia",[1],0.03 µg/kg
benzyloxycarbonyl-D-Lys-Phe-NH-(CH2)8 -NH2.2HCl,urge to groom and move,urge to groom and move; i.c.v. administration of 1 μg,the same action
benzyloxycarbonyl-Lys-Phe-OMe,choline content in the striatum,[2],increased
same,urge to groom and move,urge to groom and move; i.c.v. administration of 10 μg,cause the urge to groom and move
